Experimental data taken from PubChem BioAssay AID1963842 (Molecular Pharmacology Branch, DTP, NCI, 2024).
Where “and” joins values, the source holds several entries; their conditions need not be identical. Identical values can stand only once.

System: 677734-321-R-J1-PDC complex spheroid viability
Assay: Anticancer human tumor 677734-321-R-J1-PDC patient-derived soft tissue sarcoma cell line growth inhibition [POLQ]
Details: for viability, T/C: stronger effect = lower value
Protocol: Multicellular complex tumor spheroid response to Polymerase (POL) inhibitors (novobiocin, ART-558, RP6685) in combination with a variety of drugs and investigational agents in selected tumor cell lines
The POL inhibitors (novobiocin, ART-558, and RP6685) were evaluated both individually and in combination with standard of care and investigational anticancer small molecules within a complex spheroid model of solid tumors. . Complex spheroids include a stromal component modeled by human endothelial cells (HUVEC) and fibroblasts modeled by human mesenchymal stem cells (MSCs). The concentration ranges selected for each drug and investigational agent were based upon clinically achievable concentrations if the clinical Cmax of the agent was known.
Compounds. The drugs and investigational agents: novobiocin (NSC847541), ART-558 (NSC835418), RP-6685 (NSC848927), peposertib (NSC802822), ceralasertib (NSC780249), elimusertib (NSC800525), camonsertib (NSC841442), AZD-1390 (NSC803789), olaparib (NSC753686), talazoparib (NSC767125), rucaparib (NSC756644), sotorasib (NSC818433), MRTX-1133 (NSC836407), SN-38 (NSC673596), topotecan (NSC609699), epotoside (NSC141540), doxorubicin (NSC123127), gemcitabine (NSC613327), 5-fluorouracil (NSC19893), paclitaxel (NSC125973), vemurafenib (NSC761431), MSA-2 (NSC828583), SN-011 (NSC837082), adavosertib (NSC754352), prexasertib (NSC758257), carboplatin (NSC241240) and oxaliplatin (NSC266046), were obtained from the National Cancer Institute (NCI) Developmental Therapeutics Program Chemical Repository (21). The FDA-approved anticancer drug set is available from the Developmental Therapeutics Program at https://dtp.cancer.gov/organization/dscb/obtaining/. […] The stock solutions were prepared in dimethyl sulfoxide (DMSO, Sigma-Aldrich, St. Louis, MO, cat. D2650), except for the platinum compounds which were prepared in saline (Quality Biological, Gaithersburg, MD, cat. 114-055-101), at 800-fold the tested concentration and stored at -70 degrees C prior to their use. All drugs and investigational agents were tested over a range starting from a high concentration at or near the clinical Cmax and decreasing in half-log increments. If the clinical Cmax for an agent had not been determined, the highest concentration tested was 10 microM, except for SN-38, which was tested at a high concentration of 1 microM.
Cell Culture. All cells were maintained in an incubator at 37 degrees C and 5% CO2 with 95% humidity. The PDC lines were cultured according to standard operating procedures established by the NCI PDMR (https://pdmr.cancer.gov). Table 3 of the manuscript, lists the cell lines along with the number of the three cell types plated to form the mct-spheroids and media for tumor cell growth. After thawing, all PDC lines, except 997537-175-T-J1-PDC and 415267-285-R-J2-PDC, were cultured in Matrigel-coated flasks prepared with a working solution of 1X Ham's F-12 nutrient mix, without supplementation (Thermo Fisher Scientific, cat. 11765054), 100 U/mL penicillin-streptomycin (Thermo Fisher Scientific, cat. 15140122), and 2.5% Matrigel (Corning Inc., Corning, NY, cat. 354248) for the first three passages. The two PDC lines 997537-175-T-J1-PDC and 415267-285-R-J2-PDC were cultured on uncoated flasks. The 857933-349-R-J2-PDC line was cultured in 6C/Colon 1B media containing advanced DMEM/F-12 (Thermo Fisher Scientific, cat. 12634028), 10 mM HEPES (Thermo Fisher Scientific, cat. 15630080), 1X GlutaMAX supplement (Thermo Fisher Scientific, cat. 35050061), 0.1 mg/mL primocin (InvivoGen, San Diego, CA, cat. ant-pm-2), 10% defined fetal bovine serum, heat inactivated (HyClone Laboratories Inc., Logan, UT, cat. SH30070.03HI), 50% L-WRN conditioned media (ATCC, cat. CRL-3276), 1.25 mM N-Acetyl-L-cysteine (Sigma-Aldrich, cat. A9165), 10 mM nicotinamide (Sigma-Aldrich, cat. N0636), 1X B-27 supplement (Thermo Fisher Scientific, cat. 17504044), 1X N-2 supplement (Thermo Fisher Scientific, cat. […]

[1] = curve of first compound, second compound 0.0316 µM
[2] = curve of first compound, second compound 0.1 µM
[3] = curve of first compound, second compound 0.316 µM
[4] = curve of first compound, second compound 1 µM
[5] = curve of first compound, second compound 3.16 µM
[6] = curve of first compound, second compound 10 µM
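Note: spheroids exposed to compounds for one week.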
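Throughout, for viability, T/C: 100% = vehicle DMSO treated spheroids.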

`CC1COCCN1c1cc(-c2ccnn2C)c2ccnc(-c3ccn[nH]3)c2n1` (stereo not given) + Nc1ccc(C#CCN(C(=O)Cc2ncc(C(F)(F)F)cc2C(F)(F)F)c2ccc(F)cc2)nn1 gave an IC50 [1] of 87.7 nM, an IC50 [2] of 69.4 nM and an IC50 [3] of 59.5 nM. The IC50 [4] was 60.5 nM, the IC50 [5] was 56.6 nM and the IC50 [6] was 55.1 nM. It also gave a viability, T/C (second compound 0.0316 µM, first compound 0.0316 µM) of 74.6%, a viability, T/C (second compound 0.0316 µM, first compound 0.1 µM) of 46.8% and a viability, T/C (second compound 0.0316 µM, first compound 0.316 µM) of 11.6%. It also gave a viability, T/C (second compound 0.0316 µM, first compound 1 µM) of 8.34%, a viability, T/C (second compound 0.0316 µM, first compound 3.16 µM) of 8.12% and a viability, T/C (second compound 0.0316 µM, first compound 10 µM) of 8.31%. It also gave a viability, T/C (second compound 0.1 µM, first compound 0.0316 µM) of 92.1%, a viability, T/C (second compound 0.1 µM, first compound 0.1 µM) of 30.4% and a viability, T/C (second compound 0.1 µM, first compound 0.316 µM) of 10.6%. It also gave a viability, T/C (second compound 0.1 µM, first compound 1 µM) of 9.63%, a viability, T/C (second compound 0.1 µM, first compound 3.16 µM) of 8.82% and a viability, T/C (second compound 0.1 µM, first compound 10 µM) of 8.21%. For the same compound, the viability, T/C (second compound 0.316 µM, first compound 0.0316 µM) was 82.1%, the viability, T/C (second compound 0.316 µM, first compound 0.1 µM) was 23.7% and the viability, T/C (second compound 0.316 µM, first compound 0.316 µM) was 8.36%. It also gave a viability, T/C (second compound 0.316 µM, first compound 1 µM) of 8.25%, a viability, T/C (second compound 0.316 µM, first compound 3.16 µM) of 7.35% and a viability, T/C (second compound 0.316 µM, first compound 10 µM) of 8.3%. For the same compound, the viability, T/C (second compound 1 µM, first compound 0.0316 µM) was 89.5%, the viability, T/C (second compound 1 µM, first compound 0.1 µM) was 19.4% and the viability, T/C (second compound 1 µM, first compound 0.316 µM) was 9.09%. For the same compound, the viability, T/C (second compound 1 µM, first compound 1 µM) was 10.1%, the viability, T/C (second compound 1 µM, first compound 3.16 µM) was 7.46% and the viability, T/C (second compound 1 µM, first compound 10 µM) was 7.2%. The viability, T/C (second compound 3.16 µM, first compound 0.0316 µM) was 77%, the viability, T/C (second compound 3.16 µM, first compound 0.1 µM) was 21.9% and the viability, T/C (second compound 3.16 µM, first compound 0.316 µM) was 17.6%. For the same compound, the viability, T/C (second compound 3.16 µM, first compound 1 µM) was 8.48%, the viability, T/C (second compound 3.16 µM, first compound 3.16 µM) was 7.93% and the viability, T/C (second compound 3.16 µM, first compound 10 µM) was 7.03%. The viability, T/C (second compound 10 µM, first compound 0.0316 µM) was 82.8%, the viability, T/C (second compound 10 µM, first compound 0.1 µM) was 15% and the viability, T/C (second compound 10 µM, first compound 0.316 µM) was 9.59%. It also gave a viability, T/C (second compound 10 µM, first compound 1 µM) of 9.21%, a viability, T/C (second compound 10 µM, first compound 3.16 µM) of 10.5% and a viability, T/C (second compound 10 µM, first compound 10 µM) of 11.5%.

For `CC1COCCN1c1cc(-c2ccnn2C)c2ccnc(-c3ccn[nH]3)c2n1` (stereo not given), the viability, T/C (compound 0.0316 µM) was 91.4% and 85.5% and 69.4%, the viability, T/C (compound 0.1 µM) was 60.5% and 56.2% and 22.1% and the viability, T/C (compound 1 µM) was 24.4% and 21.4% and 10.8%. The viability, T/C (compound 3.16 µM) was 19.7% and 6.39% and 9.44%, the viability, T/C (compound 10 µM) was 18.5% and 17.1% and 9.19% and the IC50 (curve of compound) was 164 nM and 124 nM and 50.6 nM.

With `CC(=O)O[C@H]1C(=O)[C@@]2(C)[C@H]([C@H](OC(=O)c3ccccc3)[C@]3(O)C[C@H](OC(=O)[C@H](O)[C@@H](NC(=O)c4ccccc4)c4ccccc4)C(C)=C1C3(C)C)[C@]1(OC(C)=O)CO[C@@H]1C[C@@H]2O` + Nc1ccc(C#CCN(C(=O)Cc2ncc(C(F)(F)F)cc2C(F)(F)F)c2ccc(F)cc2)nn1 the IC50 [1] was < 9.49 nM, the IC50 [2] was < 9.49 nM and the IC50 [3] was < 9.49 nM. For the same compound, the IC50 [4] was < 9.49 nM, the IC50 [5] was < 9.49 nM and the IC50 [6] was < 9.49 nM. The viability, T/C (second compound 0.0316 µM, first compound 0.00949 µM) was 21.6%, the viability, T/C (second compound 0.0316 µM, first compound 0.03 µM) was 15% and the viability, T/C (second compound 0.0316 µM, first compound 0.0949 µM) was 13.9%. It also gave a viability, T/C (second compound 0.0316 µM, first compound 0.3 µM) of 14.6%, a viability, T/C (second compound 0.0316 µM, first compound 0.949 µM) of 14.9% and a viability, T/C (second compound 0.0316 µM, first compound 3 µM) of 17.6%. It also gave a viability, T/C (second compound 0.1 µM, first compound 0.00949 µM) of 32.9%, a viability, T/C (second compound 0.1 µM, first compound 0.03 µM) of 18.3% and a viability, T/C (second compound 0.1 µM, first compound 0.0949 µM) of 14.2%. It also gave a viability, T/C (second compound 0.1 µM, first compound 0.3 µM) of 13.9%, a viability, T/C (second compound 0.1 µM, first compound 0.949 µM) of 14.3% and a viability, T/C (second compound 0.1 µM, first compound 3 µM) of 16.1%. For the same compound, the viability, T/C (second compound 0.316 µM, first compound 0.00949 µM) was 21.7%, the viability, T/C (second compound 0.316 µM, first compound 0.03 µM) was 17.9% and the viability, T/C (second compound 0.316 µM, first compound 0.0949 µM) was 14.7%. The viability, T/C (second compound 0.316 µM, first compound 0.3 µM) was 11.6%, the viability, T/C (second compound 0.316 µM, first compound 0.949 µM) was 13.8% and the viability, T/C (second compound 0.316 µM, first compound 3 µM) was 15.7%. For the same compound, the viability, T/C (second compound 1 µM, first compound 0.00949 µM) was 32.7%, the viability, T/C (second compound 1 µM, first compound 0.03 µM) was 17.1% and the viability, T/C (second compound 1 µM, first compound 0.0949 µM) was 16.6%. For the same compound, the viability, T/C (second compound 1 µM, first compound 0.3 µM) was 15%, the viability, T/C (second compound 1 µM, first compound 0.949 µM) was 13.3% and the viability, T/C (second compound 1 µM, first compound 3 µM) was 12.2%. It also gave a viability, T/C (second compound 3.16 µM, first compound 0.00949 µM) of 34.1%, a viability, T/C (second compound 3.16 µM, first compound 0.03 µM) of 16.9% and a viability, T/C (second compound 3.16 µM, first compound 0.0949 µM) of 11.8%. The viability, T/C (second compound 3.16 µM, first compound 0.3 µM) was 13.4%, the viability, T/C (second compound 3.16 µM, first compound 0.949 µM) was 13.5% and the viability, T/C (second compound 3.16 µM, first compound 3 µM) was 16.4%. The viability, T/C (second compound 10 µM, first compound 0.00949 µM) was 28.8%, the viability, T/C (second compound 10 µM, first compound 0.03 µM) was 16.4% and the viability, T/C (second compound 10 µM, first compound 0.0949 µM) was 12.6%. The viability, T/C (second compound 10 µM, first compound 0.3 µM) was 13.4%, the viability, T/C (second compound 10 µM, first compound 0.949 µM) was 13% and the viability, T/C (second compound 10 µM, first compound 3 µM) was 16.8%.
